Measured values published in US12440484B2, “1,3,4-oxadiazole homophthalimide derivative compounds as histone deacetylase 6 inhibitor, and the pharmaceutical composition comprising the same” (Chong Kun Dang Pharmaceutical Corp., priority 2019, dated 2025).

How the values were obtained:
HDAC6 human recombinant = HDAC6 human recombinant (Homo sapiens (Human), UniProt Q9UBN7); test: HDAC enzyme activity inhibition (in vitro), HDAC6 assay; assay type: biochemical; conditions: samples at 0.1, 1, 10, 100 and 1000 nM; 37° C. 60 minutes; fluorescence Ex 390, Em 460
Sequence of HDAC6 human recombinant (Q9UBN7 whole entry): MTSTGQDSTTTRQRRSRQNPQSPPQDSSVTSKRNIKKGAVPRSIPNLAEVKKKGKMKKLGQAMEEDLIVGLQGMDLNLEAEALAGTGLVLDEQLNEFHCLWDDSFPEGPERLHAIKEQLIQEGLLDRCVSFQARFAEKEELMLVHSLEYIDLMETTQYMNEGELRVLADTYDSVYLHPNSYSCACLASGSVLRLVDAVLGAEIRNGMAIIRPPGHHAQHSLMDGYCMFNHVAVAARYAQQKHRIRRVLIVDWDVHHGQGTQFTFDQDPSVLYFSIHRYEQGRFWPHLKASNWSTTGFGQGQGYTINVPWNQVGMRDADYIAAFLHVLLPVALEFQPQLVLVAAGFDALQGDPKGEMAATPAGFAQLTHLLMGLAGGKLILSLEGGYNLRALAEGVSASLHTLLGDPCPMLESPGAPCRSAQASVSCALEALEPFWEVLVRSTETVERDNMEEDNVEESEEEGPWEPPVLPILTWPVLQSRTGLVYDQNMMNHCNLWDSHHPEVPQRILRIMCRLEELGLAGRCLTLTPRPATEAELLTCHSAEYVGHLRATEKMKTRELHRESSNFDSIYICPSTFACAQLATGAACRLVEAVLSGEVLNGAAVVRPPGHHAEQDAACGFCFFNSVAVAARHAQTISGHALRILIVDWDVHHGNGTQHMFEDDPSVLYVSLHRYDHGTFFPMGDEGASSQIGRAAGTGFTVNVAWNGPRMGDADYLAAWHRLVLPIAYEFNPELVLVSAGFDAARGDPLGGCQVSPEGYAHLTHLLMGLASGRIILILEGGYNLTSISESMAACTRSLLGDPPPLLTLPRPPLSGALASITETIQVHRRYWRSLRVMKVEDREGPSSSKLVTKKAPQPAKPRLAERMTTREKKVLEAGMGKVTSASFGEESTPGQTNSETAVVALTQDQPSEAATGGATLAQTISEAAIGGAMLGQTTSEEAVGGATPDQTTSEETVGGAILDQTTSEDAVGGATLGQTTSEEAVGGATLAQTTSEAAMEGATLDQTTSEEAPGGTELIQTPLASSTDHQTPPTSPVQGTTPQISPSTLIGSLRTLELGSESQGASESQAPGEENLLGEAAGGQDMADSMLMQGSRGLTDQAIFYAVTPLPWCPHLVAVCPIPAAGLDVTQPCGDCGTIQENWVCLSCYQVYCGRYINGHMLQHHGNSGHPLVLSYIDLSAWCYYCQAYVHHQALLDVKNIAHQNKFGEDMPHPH

HDAC1 = HDAC1 (Homo sapiens (Human), UniProt Q13547); test: HDAC enzyme activity inhibition (in vitro), HDAC1 Fluorimetric Drug Discovery Assay Kit; assay type: biochemical; conditions: samples at 100, 1000 and 10000 nM; 37° C. 60 minutes; fluorescence Ex 390, Em 460
Sequence of HDAC1 (Q13547 whole entry): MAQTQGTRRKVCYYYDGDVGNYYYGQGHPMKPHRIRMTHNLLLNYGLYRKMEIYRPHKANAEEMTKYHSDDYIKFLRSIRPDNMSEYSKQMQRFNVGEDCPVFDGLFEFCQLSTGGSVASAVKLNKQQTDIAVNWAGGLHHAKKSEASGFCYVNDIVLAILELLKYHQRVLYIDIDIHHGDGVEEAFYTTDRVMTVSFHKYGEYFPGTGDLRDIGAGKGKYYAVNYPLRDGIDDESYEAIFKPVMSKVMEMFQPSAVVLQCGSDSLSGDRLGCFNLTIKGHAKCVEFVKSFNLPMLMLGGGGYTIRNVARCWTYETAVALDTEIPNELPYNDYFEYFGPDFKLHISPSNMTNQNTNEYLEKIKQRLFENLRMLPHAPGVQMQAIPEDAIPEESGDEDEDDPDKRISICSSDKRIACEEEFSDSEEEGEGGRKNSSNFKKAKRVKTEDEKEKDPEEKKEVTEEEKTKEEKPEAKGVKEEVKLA

IC50 (HDAC6 human recombinant) | IC50 (HDAC1) | SMILES
35 nM | > 10000 nM | CC1(C)C(=O)N(Cc2ccc(-c3nnc(C(F)F)o3)cn2)C(=O)c2ccc(C3CCN(C4COC4)CC3)cc21 [Compound 61, 2-((5-(5-(difluoromethyl)-1,3,4-oxadiazole-2-yl)pyridine-2-yl)methyl)-4,4-dimethyl-6-(1-(oxetan-3-yl)piperidine-4-yl)isoquinoline-1,3(2H,4H)-dione]
27 nM | > 10000 nM | CC(=O)N1CCN(c2ccc3c(c2)C(C)(C)C(=O)N(Cc2ccc(-c4nnc(C(F)F)o4)cn2)C3=O)CC1 [Compound 34, 6-(4-acetylpiperazine-1-yl)-2-((5-(5-(difluoromethyl)-1,3,4-oxadiazole-2-yl)pyridine-2-yl)methyl)-4,4-dimethylisoquinoline-1,3(2H,4H)-dione]
50 nM | > 10000 nM | CC1(C)C(=O)N(Cc2ccc(-c3nnc(C(F)F)o3)cn2)C(=O)c2cc(-c3ccoc3)ccc21 [Compound 112, 2-((5-(5-(difluoromethyl)-1,3,4-oxadiazole-2-yl)pyridine-2-yl)methyl)-7-(furan-3-yl)-4,4-dimethylisoquinoline-1,3(2H,4H)-dione]
148 nM | > 10000 nM | O=C1c2ccc(Br)cc2C2(CCCCC2)C(=O)N1Cc1ccc(-c2nnc(C(F)F)o2)cn1 [Compound 107, 6′-bromo-2′-((5-(5-(difluoromethyl)-1,3,4-oxadiazole-2-yl)pyridine-2-yl)methyl)-1′H-spiro[cyclohexane-1,4′-isoquinoline]-1′,3′(2′H)-dione]
18 nM | > 10000 nM | CN1CCN(c2ccc3c(c2)C(C)(C)C(=O)N(Cc2ccc(-c4nnc(C(F)F)o4)cn2)C3=O)CC1 [Compound 29, 2-((5-(5-(difluoromethyl)-1,3,4-oxadiazole-2-yl)pyridine-2-yl)methyl)-4,4-dimethyl-6-(4-methylpiperazine-1-yl)isoquinoline-1,3(2H,4H)-dione]
32 nM | > 10000 nM | CC1(C)C(=O)N(Cc2ccc(-c3nnc(C(F)F)o3)cn2)C(=O)c2cc(C3=CCS(=N)(=O)CC3)ccc21 (stereo not shown) [Compound 126, 2-((5-(5-(difluoromethyl)-1,3,4-oxadiazole-2-yl)pyridine-2-yl)methyl)-7-(1-imino-1-oxydo-1,2,3,6-tetrahydro-1λ^6-thiopyran-4-yl)-4,4-dimethylisoquinoline-1,3(2H,4H)-dione]
11 nM | > 10000 nM | CC(=O)N1CCN(c2ccc3c(c2)C(C)(C)C(=O)N(Cc2ccc(-c4nnc(C(F)F)o4)cn2)C3=O)CC12CC2 [Compound 81, 6-(4-acetyl-4,7-diazaspiro[2.5]octane-7-yl)-2-((5-(5-(difluoromethyl)-1,3,4-oxadiazole-2-yl)pyridine-2-yl)methyl)-4,4-dimethylisoquinoline-1,3(2H,4H)-dione]
21 nM | > 10000 nM | CC(C)N1CCN(c2ccc3c(c2)C(=O)N(Cc2ccc(-c4nnc(C(F)F)o4)cn2)C(=O)C3(C)C)CC1 [Compound 119, 2-((5-(5-(difluoromethyl)-1,3,4-oxadiazole-2-yl)pyridine-2-yl)methyl)-7-(4-isopropylpiperazine-1-yl)-4,4-dimethylisoquinoline-1,3(2H,4H)-dione]
20 nM | > 10000 nM | CC1(C)C(=O)N(Cc2ccc(-c3nnc(C(F)F)o3)cn2)C(=O)c2cc(C3CCN(C4COC4)CC3)ccc21 [Compound 55, 2-((5-(5-(difluoromethyl)-1,3,4-oxadiazole-2-yl)pyridine-2-yl)methyl)-4,4-dimethyl-7-(1-(oxetan-3-yl)piperidine-4-yl)isoquinoline-1,3(2H,4H)-dione]

The next lines start with the compound.

SMILES | IC50 (HDAC6 human recombinant) | IC50 (HDAC1)
O=c1[nH]c2ccc(F)cc2c(=O)n1Cc1ccc(-c2nnc(C(F)F)o2)cn1 [Compound 67, 3-((5-(5-(difluoromethyl)-1,3,4-oxadiazole-2-yl)pyridine-2-yl)methyl)-6-fluoroquinazoline-2,4(1H,3H)-dione] | 62 nM | > 10000 nM
CCN1CCC(c2ccc3c(c2)C(C)(C)C(=O)N(Cc2ncc(-c4nnc(C(F)F)o4)cn2)C3=O)CC1 [Compound 156, 2-((5-(5-(difluoromethyl)-1,3,4-oxadiazole-2-yl)pyrimidine-2-yl)methyl)-6-(1-ethylpiperidine-4-yl)-4,4-dimethylisoquinoline-1,3(2H,4H)-dione] | 56 nM | > 10000 nM
Cn1c(=O)n(Cc2ccc(-c3nnc(C(F)F)o3)cn2)c(=O)c2ccc(-c3cccnc3)cc21 [Compound 100, 3-((5-(5-(difluoromethyl)-1,3,4-oxadiazole-2-yl)pyridine-2-yl)methyl)-1-methyl-7-(pyridine-3-yl)quinazoline-2,4(1H,3H)-dione] | 37 nM | > 10000 nM
Cn1c(=O)n(Cc2ccc(-c3nnc(C(F)F)o3)cn2)c(=O)c2ccc(-c3ccccc3F)cc21 [Compound 99, 3-((5-(5-(difluoromethyl)-1,3,4-oxadiazole-2-yl)pyridine-2-yl)methyl)-7-(2-fluorophenyl)-1-methylquinazoline-2,4(1H,3H)-dione] | 149 nM | > 10000 nM
CC1(C)C(=O)N(Cc2ccc(-c3nnc(C(F)F)o3)cn2)C(=O)c2c(-c3cccnc3)cccc21 [Compound 85, 2-((5-(5-(difluoromethyl)-1,3,4-oxadiazole-2-yl)pyridine-2-yl)methyl)-4,4-dimethyl-8-(pyridine-3-yl)isoquinoline-1,3(2H,4H)-dione] | 50 nM | > 10000 nM
CCN1CCC(c2ccc3c(c2)C(C)(C)C(=O)N(Cc2ccc(-c4nnc(C(F)F)o4)cn2)C3=O)CC1 [Compound 59, 2-((5-(5-(difluoromethyl)-1,3,4-oxadiazole-2-yl)pyridine-2-yl)methyl)-6-(1-ethylpiperidine-4-yl)-4,4-dimethylisoquinoline-1,3(2H,4H)-dione] | 56 nM | > 10000 nM
O=c1c2ccccc2n(CCn2cccn2)c(=O)n1Cc1ccc(-c2nnc(C(F)F)o2)cn1 [Compound 21, 1-(2-(1H-pyrazole-1-yl)ethyl)-3-((5-(5-(difluoromethyl)-1,3,4-oxadiazole-2-yl)pyridine-2-yl)methyl)quinazoline-2,4(1H,3H)-dione] | 273 nM | > 10000 nM
O=C1c2ccccc2C2(CCC2)C(=O)N1Cc1ccc(-c2nnc(C(F)F)o2)cn1 [Compound 4, 2′-((5-(5-(difluoromethyl)-1,3,4-oxadiazole-2-yl)pyridine-2-yl)methyl)-1′H-spiro[cyclobutane-1,4′-isoquinoline]-1′,3′(2′H)-dione] | 32 nM | > 10000 nM
CC1(C)C(=O)N(Cc2ccc(-c3nnc(C(F)F)o3)cc2)C(=O)c2ccccc21 [Compound 6, 2-(4-(5-(difluoromethyl)-1,3,4-oxadiazole-2-yl)benzyl)-4,4-dimethylisoquinoline-1,3(2H,4H)-dione] | 647 nM | > 10000 nM
O=C1c2ccccc2C(=O)N1Cc1ccc(-c2nnc(C(F)F)o2)cn1 [Compound 1, 2-((5-(5-(difluoromethyl)-1,3,4-oxadiazole-2-yl)pyridine-2-yl)methyl)isoindoline-1,3-dione] | 57 nM | > 10000 nM
COc1ccc(-c2cccc3c2C(=O)N(Cc2ccc(-c4nnc(C(F)F)o4)cn2)C(=O)C3(C)C)cn1 [Compound 94, 2-((5-(5-(difluoromethyl)-1,3,4-oxadiazole-2-yl)pyridine-2-yl)methyl)-8-(6-methoxypyridine-3-yl)-4,4-dimethylisoquinoline-1,3(2H,4H)-dione] | 116 nM | > 10000 nM
